Legend:
[1] = tested on: MCF-10A (human mammary epithelial cells); test: Growth inhibition / cell viability (Cell Titer-Glo) on MCF-10A cells; format: cell-based; settings: 48 hours, tested up to 100 μM
Experimental: (§1) Toxicity studies of both CD-MOF-1 and ibuprofen were carried out in vitro on two cell lines: MCF-10A (human mammary epithelial cells) (FIG. 4A) and MDA-MB-231 (human breast adenocarcinoma) (FIG. 4B). For both cell lines, no IC50 value could be obtained for CD-MOF-1, and ibuprofen up to concentrations of 100 μM.
(§2) Cell Studies. For cell studies, CD-MOF-1 was solubilized in H2O and the free-acid of ibuprofen was solubilized in Me2SO. The growth inhibition of various cell lines was determined according to the protocols from the NCl/NIH Developmental Therapeutics Program, and in collaboration with the Northwestern University Developmental Therapeutics Core Facility. Cells were plated in triplicate in 96 well plates. The cells were plated at densities of 10,000 per well in 90 μL for MDA-MB-231; and 25,000 per well in 90 μL for MCF-10A. The MDA-MB-231 cells were cultured in RPMI1640 media supplemented with 10% Fetal Bovine Serum (FBS), and 2 mM glutamine with 5% CO2 at 37° C. For experiments, 5% of FBS and 50 μg/mL of gentamycin were used. […]
(§3) Time zero cells (Tz) were processed according to the Promega Cell Titer Glo, and the following day Cell Titer-Glo Luminescent Cell Viability Assay. […] The plates were shaken for 2 min and allowed to sit for activation prior to reading for 10 min. Plates were read on a BioTek reader using the luminescence program.

[2] = tested on: MDA-MB-231 (human breast adenocarcinoma); test: Growth inhibition / cell viability (Cell Titer-Glo) on MDA-MB-231 cells; format: cell-based; settings: 48 hours, tested up to 100 μM
Experimental: as §1, §2, §3

[3] = Storage under ambient conditions: hygroscopicity and crystallinity (PXRD); format: physicochemical; settings: atmospheric / ambient conditions, several months for the CD-MOF-1 formulation
Experimental: FIG. 3A depicts powder X-ray diffraction (PXRD) of freshly prepared CD-MOF-1 formulations of ibuprofen prepared by co-crystallization from the potassium salt of ibuprofen and adsorption of the deprotonated acid form of ibuprofen within a pre-existing CD-MOF-1, compared to the predicted I432 diffraction pattern.
Three formulations were tested: ibuprofen, potassium salt, and a physical mixture of 23 wt. % ibuprofen, potassium salt with γ-CD (which is analogous to a stoichiometric loading of ibuprofen within CD-MOF-1 created by co-crystallization) were used as control samples, and the third formulation contained CD-MOF-1 loaded with 26 wt. % ibuprofen by the adsorption protocol. The potassium salt of ibuprofen was considered to be the most appropriate control form of ibuprofen in this study, as the results of the solvent-dependent adsorption loading of ibuprofen is evidence that an anion exchange process was occurring within CD-MOf-1, i.e., deprotonation of the free-acid form of ibuprofen, which was facilitated by water-miscible polar solvents. […] It is used, however, in rapid release gelatin capsules.

Compound | IC50 [1] [µM] | IC50 [2] [µM] | hygroscopicity [3]
CC(C)Cc1ccc(C(C)C(=O)O)cc1 (racemic) [ibuprofen] | > 100 | > 100 | 
CC(C)Cc1ccc(C(C)C(=O)[O-])cc1.[K+] (stereo not drawn) [potassium salt of ibuprofen, ibuprofen, potassium salt] |  |  | very hygroscopic
